Data: patent publication US20150150843A1, “CARDIOPROTECTIVE COMPOUNDS, THEIR USE WITH CHEMOTHERAPY, AND METHODS FOR IDENTIFYING THEM” (priority 2012, published 2015)
Marks after values point to notes of the source that are not given here.

Experiments:
zebrafish heart = experiment: Doxorubicin-induced heart failure model in zebrafish (heart contraction, tail circulation, morphology, fractional shortening); format: in vivo
Experimental: For screening, about 400 nl of small molecule stock solution was transferred from 96-well format library plates to fish plate with transfer pins. At dpf 3, treated fish were screened under inverted fluorescent microscope (100×) for heart contraction and tail circulation.
Zebrafish have been used successfully for high-throughput screening (HTS) to identify chemical compounds that suppress genetic defects and other disease states (Peterson et al., Methods Cell. Biol. 105, 525-541, 2011). Compared to cell-based in vitro systems, in vivo screening offers several advantages, including the ability to discover compounds with therapeutic activity even without knowing their molecular targets. In addition, compounds discovered by in vivo screening are selected for their ability to be effective in the complex context of the disease of interest. […] Heart contraction was dramatically compromised, resulting in the absence of blood cell circulation within tail blood vessels. Using a high-speed camera and a custom analysis algorithm, we were able to calculate the fractional shortening of the zebrafish hearts. […] Therefore, the zebrafish model appears to recapitulate several key aspects of the doxorubicin-induced heart failure seen in humans, including increased apoptosis and reduced contractility. Because the doxorubicin-induced changes in cardiac function and blood circulation are easily detected visually, they formed the basis of an assay to identify small molecules suppressing doxorubicin-induced cardiotoxicity.
Hearts were surgically removed and briefly fixed with 4% paraformaldehyde (PFA) for 20 minutes at room temperature. The fixed heart samples were embedded in mounting medium and flattened with slide and coverslip. Confocal images were captured from the flattened hearts, and red nuclei were counted. All experiments were done at least three times, and the statistics were obtained by Student T-test.
In order to confirm and quantify the activity of compounds with cardioprotective properties identified in the preceding assays, a high-resolution assay of cardiac function, described by Shin et al. (Physiol Genomics. 2010 July; 42(2): 300-309), can be used to measure heart fractional shortening.

zebrafish cardiomyocytes = experiment: TUNEL staining of apoptotic cardiomyocytes in doxorubicin-treated zebrafish; format: in vivo
Experimental: Because cardiomyocyte apoptosis plays a critical role in mediating doxorubicin-induced cardiomyopathy, we sought to determine if VIS Aand DPU attenuate heart failure by inhibiting cardiomyocyte apoptosis.
Hearts were surgically removed and fixed with 4% paraformaldehyde (PFA) for 20 minutes at room temperature. After staining with an in situ TUNEL kit (Roche), heart samples were embedded in mounting medium and flattened with slide and coverslip, and then subjected to confocal microscopy. The data were quantified as percentage of TUNEL positive cardiomyocytes. All experiments were done at least three times, and the statistics were obtained by Student T-test.

mouse cardiac sections = experiment: TUNEL apoptosis assay in hearts of doxorubicin-treated mice; format: in vivo; details: one day
Experimental: To determine if the ability of VIS and DPU to protect cardiomyocytes from apoptosis was conserved in mammals, we treated mice with doxorubicin with or without co-treatment with VIS or DPU. One day later, hearts were collected for apoptosis assays using TUNEL (Supplement FIG. 1b). […] Therefore, VIS and DPU appear to prevent doxorubicin-induced cardiac apoptosis in both zebrafish and mice.
One day after injection, hearts were collected and fixed with 4% PFA at 4° C. overnight and then were subjected to paraffin embedding and sectioning. The heart sections were stained using the TMR TUNEL kit (Roche) following the manufacturer's protocol. The stained sections were scanned with MetaMorph-assisted slide scanning microscopy, and apoptosis indices were quantified as TUNEL positive cell/mm^2. All experiments were done at least three times, and the statistics were obtained by Student T-test.

[1] = system: neonatal rat cardiomyoyte; experiment: Doxorubicin-induced apoptosis in neonatal rat cardiomyocyte; format: cell-based
cardiomyoyte HL1 = experiment: AnnexinV apoptosis assay in cardiomyocyte HL1; format: cell-based, mouse
Experimental: (§1) Cardiomyocyte line HL-1 was derived from mouse atrium tumor. Culturing conditions were previously published (Claycomb et al., Proc. Natl. Acad. Sci. USA, 95, 2979, 1998). HL 1 was cultured with Claycomb medium (Sigma) supplemented with fetal bovine serum (FBS), penicillin/streptomycin, L-glutamine and norepinephrine. DU145 and LNCaP are human prostate tumor lines, while MCF7 is a human breast cancer line. DU145 and MCF7 were cultured with high glucose DMEM (Life Sciences) supplemented with penicillin/streptomycin and L-glutamine, and LNCaP was grown in RPMI-1640 (Life Sciences) plus penicillin/streptomycin and L-glutamine. […] Apoptosis indices were quantified as percentage of AnnexinV positive cells. All experiments were done at least three times, and the statistics were obtained by Student T-test.

tumor line DU145 = experiment: Doxorubicin-induced apoptosis in tumor line DU145; format: cell-based, human
Experimental: as §1

tumor line LNCaP = experiment: Doxorubicin-induced apoptosis in tumor line LNCaP; format: cell-based, human
Experimental: as §1

tumor line MCF7 = experiment: Doxorubicin-induced apoptosis in tumor line MCF7; format: cell-based, human
Experimental: as §1

cardiomyocyte HL1 = experiment: CellTiter Glo viability of doxorubicin-treated HL1; format: cell-based, mouse; details: VIS and DPU at 20 μM
Experimental: (§2) Cardiomyocyte line HL-1 was derived from mouse atrium tumor. Culturing conditions were previously published (Claycomb et al., Proc. Natl. Acad. Sci. USA, 95, 2979, 1998). HL 1 was cultured with Claycomb medium (Sigma) supplemented with fetal bovine serum (FBS), penicillin/streptomycin, L-glutamine and norepinephrine. DU145 and LNCaP are human prostate tumor lines, while MCF7 is a human breast cancer line. DU145 and MCF7 were cultured with high glucose DMEM (Life Sciences) supplemented with penicillin/streptomycin and L-glutamine, and LNCaP was grown in RPMI-1640 (Life Sciences) plus penicillin/streptomycin and L-glutamine. […] All experiments were done at least three times, and the statistics were obtained by Student T-test.

[2] = system: prostate tumor cell DU145; experiment: CellTiter Glo viability of doxorubicin-treated DU145; format: cell-based, human; details: VIS and DPU at 20 μM
Experimental: as §2

[3] = system: caspases 3, 8 and 9 in cardiomyocyte; experiment: Caspase 3, 8 and 9 activity (fluorogenic substrates) in cardiomyocyte; format: cell-based
Experimental: We also examined effects of the compounds on apoptosis (via TUNEL staining) in cardiomyocytes and tumor cells.
Specific activity of caspases 3, 8 and 9 were assessed semi-quantitatively using the corresponding fluorogenic substrates following manufacturer's protocols (R&D Systems). All experiments were done at least three times, and the statistics were obtained by Student T-test.

[4] = system: JNK phosphorylation in HL 1 cells; experiment: JNK phosphorylation western blot in HL 1 cells; format: cell-based, mouse
Text: (§3) In an effort to identify pathways involved in VIS and DPU mediated cardioprotection, we screened a panel of kinases by western blotting. […] To confirm the cardiomyocyte-specific inhibition of JNK signaling, we used a luciferase-based AP1 reporter assay to detect JNK activation in HL 1 and DU145 cells.
Blots were quantified by densitometry with Image J. All experiments were done at least three times, and the statistics were obtained by Student T-test.

[5] = system: JNK phosphorylation in DU145 cells; experiment: JNK phosphorylation western blot in DU145 cells; format: cell-based, human
Text: as §3

[6] = system: JNK responsive reporter AP-1 in HL 1 cells; experiment: AP-1 luciferase reporter assay in HL 1 cells; format: cell-based, mouse; details: doxorubicin-treated
Text: as §3

[7] = system: JNK responsive reporter AP-1 in DU145 cells; experiment: AP-1 luciferase reporter assay in DU145 cells; format: cell-based, human; details: doxorubicin-treated
Text: as §3

mouse heart function [8] = experiment: Acute doxorubicin-induced HF model in mice, echocardiography; format: in vivo; details: five days
Experimental: Five days after the initial injection, we assessed heart function by M mode echocardiogram.
Strain C57BL/6 male mice between 8-10 weeks of age were purchased from Charles River Laboratories. […] In the control group, plain vehicle and saline were injected instead. Five days later, injected mice were subjected to echocardiography. Five days after treatment, transthoracic echocardiographic images were obtained and interpreted by an echocardiographer blinded to the experimental design using a 13.0-MHz linear probe (Vivid 7; GE Medical System, Milwaukee, Wis.) as described (Zou et al., Crit. Care Med. 38, 1335-1342, 2010; Neilan et al., Eur. Heart J. 27, 1868-1875, 2006). Mice were lightly anesthetized with ketamine (20 mg/kg). M-mode images were obtained from a parasternal short-axis view at the midventricular level with a clear view of papillary muscle. Tissue Doppler imaging was collected at a frame rate of 483 frames per second and a depth of 1 em. LV end-diastolic internal diameter (LVIDd) and LV end systolic internal diameter (LVIDS) were measured. Fractional shortening (FS) was defined as [(LVIDd−LVIDS)/LVIDd]. Strain rate of the posterior wall was analyzed offline in an EchoPAC workstation (GE Healthcare, Wauwatosa, Wis.). A region of interest (axial distance, 0.2 mm; width, 0.6 mm) was manually positioned in the middle of the posterior wall. A strain length of 0.5 mm was used. Peak systolic strain rate was measured. The temporal smoothing filters were turned off for all measurements. The values of three consecutive cardiac cycles were averaged.

mouse heart function [9] = experiment: Chronic low-dose doxorubicin treatment in mice, echocardiography; format: in vivo; details: low doses of doxorubicin 5 times over 5 weeks
Text: Labels: DMSO: DMSO-treated control samples; Dox: doxorubicin-treated samples; Dox+VIS: doxorubicin and VIS co-treated samples; Dox+DPU: doxorubicin and DPU co-treated samples.

[10] = patients; cited from earlier work
[11] = zebrafish treated with doxorubicin
[12] = mice, 15 mg/kg doxorubicin IP, with or without 25 mg/kg VIS IP, mean ± SEM

COc1c2ccoc2cc2oc(C)cc(=O)c12 [VIS, visnagin]
cardiac contractility as measured by fractional shortening (zebrafish heart; [11]): completely rescued cardiac contractility
overt morphological effects of doxorubicin on the heart (ventricular compaction, pericardial edema) (zebrafish heart; [11]): prevented the overt morphological effects of doxorubicin on the heart
number of apoptotic cardiomyocytes induced by doxorubicin (TUNEL) (zebrafish cardiomyocytes; 100 μM doxorubicin plus 20 μM rescue compound, two days): greatly reduced the number of apoptotic cardiomyocytes
doxorubicin-induced apoptosis in mouse heart (TUNEL) (mouse cardiac sections; 15 mg/kg doxorubicin plus 25 mg/kg visnagin or 10 mg/kg diphenylurea IP): significantly decreased doxorubicin-induced apoptosis
doxorubicin-induced apoptosis, AnnexinV staining [1]: inhibit doxorubicin-induced apoptosis
doxorubicin-induced apoptosis, TUNEL staining [1]: inhibit doxorubicin-induced apoptosis
doxorubicin-induced apoptosis, AnnexinV staining (cardiomyoyte HL1): reduce doxorubicin-induced apoptosis
doxorubicin-induced apoptosis (tumor line DU145): do not reduce doxorubicin-induced apoptosis
doxorubicin-induced apoptosis (tumor line LNCaP): do not reduce doxorubicin-induced apoptosis
doxorubicin-induced apoptosis (tumor line MCF7): do not reduce doxorubicin-induced apoptosis
viability of doxorubicin-treated cardiomyocyte HL1 (cardiomyocyte HL1): increase viability
viability of doxorubicin-treated prostate tumor cell DU145 [2]: do not increase viability
activity of caspases 3, 8 and 9 activated by doxorubicin [3]: inhibited
doxorubicin-induced JNK phosphorylation [4]: inhibit doxorubicin-induced JNK phosphorylation
doxorubicin-induced JNK phosphorylation [5]: do not inhibit doxorubicin-induced JNK phosphorylation
AP-1 luciferase activity [6]: repressed
AP-1 luciferase activity [7]: not repressed
fractional shortening and strain rate compared to mice treated with doxorubicin alone (mouse heart function [8]; 25 mg/kg VIS immediately prior to 15 mg/kg doxorubicin IP): significant improvement
doxorubicin-induced reduction of fractional shortening (mouse heart function [9]): partially reversed the reduction
doxorubicin-induced reduction of strain rate (mouse heart function [9]): partially reversed the reduction

COc1cccc2c1C(=O)c1c(O)c3c(c(O)c1C2=O)C[C@@](O)(C(=O)CO)C[C@@H]3O[C@H]1C[C@H](N)[C@H](O)[C@H](C)O1 [doxorubicin]
atrium and ventricle cardiomyocyte numbers compared to controls (zebrafish heart; 100 μM doxorubicin for two days, cmlc2-dsRed line): significantly reduced
heart rate and contractility (zebrafish heart; 100 μM doxorubicin from 1 dpf, assessed at 3 dpf): dramatically reduced
pericardial edema (zebrafish heart; 100 μM doxorubicin from 1 dpf, two days exposure): extensive pericardial edema
increase in apoptotic cardiomyocytes (TUNEL) (zebrafish cardiomyocytes; doxorubicin 100 μM, 4 dpf zebrafish): four-fold increase
increase in apoptosis in mouse cardiac sections (TUNEL) (mouse cardiac sections; 15 mg/kg doxorubicin IP): 3- to 4 fold
FS (mouse heart function [8]; [12]): 44 ± 2 %
HR (mouse heart function [8]; [12]): 609 ± 23 beats/min
LVIDs (mouse heart function [8]; [12]): 1.78 ± 0.10 mm
Strain Rate (mouse heart function [8]; [12]): 16 ± 1*** 1/sec
cumulative dosages that exponentially increase the risk of heart failure [10]: above 450 mg/m^2
